The NIST ThermoML archive (doi:10.1021/je400122k)

Conditions: Liquid; for speed of sound: Pulse-echo method; for mass density: Vibrating tube method

CCCCCCCCCCCCCC(=O)OCC [ethyl tetradecanoate]
Conditions | mass density [kg/m3] | speed of sound [m/s]
293.15 K, 100 kPa | – | 1360.6
293.15 K, 101.3 kPa | 861 | –
293.15 K, 10000 kPa | 867.5 | 1408
293.15 K, 20000 kPa | 873.2 | 1453.3
293.15 K, 30000 kPa | 878.7 | 1494.5
293.15 K, 40000 kPa | 883.8 | 1533.5
293.15 K, 50000 kPa | 888.7 | 1568.2
293.15 K, 60000 kPa | 893.6 | –
303.15 K, 100 kPa | – | 1321.8
303.15 K, 101.3 kPa | 853.3 | –
303.15 K, 10000 kPa | 860.2 | 1370.9
303.15 K, 20000 kPa | 866.2 | 1416.8
303.15 K, 30000 kPa | 871.9 | 1460.6
303.15 K, 40000 kPa | 877.3 | 1500.8
303.15 K, 50000 kPa | 882.2 | 1539.9
303.15 K, 60000 kPa | 887 | –
303.15 K, 70000 kPa | 891.7 | –
303.15 K, 80000 kPa | 896 | –
303.15 K, 90000 kPa | 900.3 | –
303.15 K, 100000 kPa | 904.4 | –
313.15 K, 101.3 kPa | 845.6 | –
313.15 K, 10000 kPa | 852.7 | –
313.15 K, 20000 kPa | 859 | –
313.15 K, 30000 kPa | 864.9 | –
313.15 K, 40000 kPa | 870.5 | –
313.15 K, 50000 kPa | 875.7 | –
313.15 K, 60000 kPa | 880.8 | –
313.15 K, 70000 kPa | 885.5 | –
313.15 K, 80000 kPa | 890.8 | –
313.15 K, 90000 kPa | 894.9 | –
313.15 K, 100000 kPa | 899.1 | –
323.15 K, 100 kPa | – | 1251.8
323.15 K, 101.3 kPa | 838.5 | –
323.15 K, 10000 kPa | 845.4 | 1304.5
323.15 K, 20000 kPa | 852 | 1353.4
323.15 K, 30000 kPa | 858.2 | 1398.6
323.15 K, 40000 kPa | 863.9 | 1441.1
323.15 K, 50000 kPa | 869.2 | 1482.4
323.15 K, 60000 kPa | 874.7 | 1519.7
323.15 K, 70000 kPa | 879.8 | 1555.8
323.15 K, 80000 kPa | 884.5 | 1590.8
323.15 K, 90000 kPa | 888.9 | 1624.6
323.15 K, 100000 kPa | 893.1 | 1655.7
333.15 K, 101.3 kPa | 830.6 | –
333.15 K, 10000 kPa | 838 | –
333.15 K, 20000 kPa | 844.9 | –
333.15 K, 30000 kPa | 851.3 | –
333.15 K, 40000 kPa | 857.2 | –
333.15 K, 50000 kPa | 862.9 | –
333.15 K, 60000 kPa | 868.2 | –
333.15 K, 70000 kPa | 874 | –
333.15 K, 80000 kPa | 878 | –
333.15 K, 90000 kPa | 883.4 | –
333.15 K, 100000 kPa | 888 | –
343.15 K, 100 kPa | – | 1184.7
343.15 K, 101.3 kPa | 823.2 | –
343.15 K, 10000 kPa | 831.1 | 1241.3
343.15 K, 20000 kPa | 838.6 | 1293
343.15 K, 30000 kPa | 845.2 | 1341.9
343.15 K, 40000 kPa | 851.3 | 1386.7
343.15 K, 50000 kPa | 857.1 | 1428.8
343.15 K, 60000 kPa | 862.5 | 1468.1
343.15 K, 70000 kPa | 867.7 | 1506.4
343.15 K, 80000 kPa | 872.8 | 1541.9
343.15 K, 90000 kPa | 877.5 | 1576.2
343.15 K, 100000 kPa | 882.1 | 1609.1
353.15 K, 101.3 kPa | 815.6 | –
353.15 K, 10000 kPa | 823.9 | –
353.15 K, 20000 kPa | 831.8 | –
353.15 K, 30000 kPa | 838.7 | –
353.15 K, 40000 kPa | 845 | –
353.15 K, 50000 kPa | 850.8 | –
353.15 K, 60000 kPa | 856.4 | –
353.15 K, 70000 kPa | 861.8 | –
353.15 K, 80000 kPa | 866.9 | –
353.15 K, 90000 kPa | 871.8 | –
353.15 K, 100000 kPa | 876.4 | –
363.15 K, 100 kPa | – | 1120
363.15 K, 101.3 kPa | 808.4 | –
363.15 K, 10000 kPa | 816.6 | 1181.8
363.15 K, 20000 kPa | 824.6 | 1236.4
363.15 K, 30000 kPa | 831.8 | 1287.1
363.15 K, 40000 kPa | 838.6 | 1334.2
363.15 K, 50000 kPa | 845 | 1377.5
363.15 K, 60000 kPa | 850.6 | 1418.8
363.15 K, 70000 kPa | 856.1 | 1457.6
363.15 K, 80000 kPa | 861.3 | 1495.5
363.15 K, 90000 kPa | 866.3 | 1531
363.15 K, 100000 kPa | 871.1 | 1564.6
373.15 K, 101.3 kPa | 800.1 | –
373.15 K, 10000 kPa | 809.9 | –
373.15 K, 20000 kPa | 817.9 | –
373.15 K, 30000 kPa | 825.5 | –
373.15 K, 40000 kPa | 832.4 | –
373.15 K, 50000 kPa | 838.8 | –
373.15 K, 60000 kPa | 844.9 | –
373.15 K, 70000 kPa | 850.6 | –
373.15 K, 80000 kPa | 856.2 | –
373.15 K, 90000 kPa | 861.3 | –
373.15 K, 100000 kPa | 866.1 | –
383.15 K, 100 kPa | – | 1056.9
383.15 K, 101.3 kPa | 792.1 | –
383.15 K, 10000 kPa | 802.1 | 1122.3
383.15 K, 20000 kPa | 810.7 | 1181.7
383.15 K, 30000 kPa | 818.5 | 1235.6
383.15 K, 40000 kPa | 825.9 | 1284.7
383.15 K, 50000 kPa | 832.5 | 1330.3
383.15 K, 60000 kPa | 838.9 | 1372.3
383.15 K, 70000 kPa | 845 | 1412.6
383.15 K, 80000 kPa | 850.5 | 1450.4
383.15 K, 90000 kPa | 855.9 | 1486.9
383.15 K, 100000 kPa | 861 | 1521.7
393.15 K, 101.3 kPa | 784.5 | –
393.15 K, 10000 kPa | 794.6 | –
393.15 K, 20000 kPa | 803.7 | –
393.15 K, 30000 kPa | 812 | –
393.15 K, 40000 kPa | 819.5 | –
393.15 K, 50000 kPa | 826.4 | –
393.15 K, 60000 kPa | 832.9 | –
393.15 K, 70000 kPa | 839.8 | –
393.15 K, 80000 kPa | 845.6 | –
393.15 K, 90000 kPa | 851 | –
393.15 K, 100000 kPa | 855.6 | –
403.15 K, 100 kPa | – | 996.1
403.15 K, 10000 kPa | – | 1067.2
403.15 K, 20000 kPa | – | 1130.3
403.15 K, 30000 kPa | – | 1186.1
403.15 K, 40000 kPa | – | 1237.3
403.15 K, 50000 kPa | – | 1284.9
403.15 K, 60000 kPa | – | 1327.9
403.15 K, 70000 kPa | – | 1370
403.15 K, 80000 kPa | – | 1409.7
403.15 K, 90000 kPa | – | 1447.5
403.15 K, 100000 kPa | – | 1483.2
